Row | melting point | SMILES
1 | 184 to 185 °C | CC1=C(C(=O)OC(C)(C)C)C(c2ccccc2I)C(C(=O)OC(C)(C)C)=C(C)N1 [Example 28, Di-tert-butyl 1,4-dihydro-4-(2-iodophenyl)-2,6-dimethylpyridine-3,5-dicarboxylate]
2 | 201 to 202 °C | CC1=C(C(=O)OC(C)(C)C)C(c2ccccc2F)C(C(=O)OC(C)(C)C)=C(C)N1 [Example 13, Di-tert-butyl 4-(2-fluorophenyl)-1,4-dihydro-2,6-dimethylpyridine-3,5-dicarboxylate]
3 | 162 to 164 °C | CC1=C(C(=O)OC(C)(C)C)C(c2ccccc2Br)C(C(=O)OC(C)(C)C)=C(C)N1 [Example 14, Di-tert-butyl 4-(2-bromophenyl)-1,4-dihydro-2,6-dimethylpyridine-3,5-dicarboxylate]
4 | 189.5 to 190.5 °C | CC1=C(C(=O)OC(C)(C)C)C(c2cccc(Cl)c2)C(C(=O)OC(C)(C)C)=C(C)N1 [Example 21, Di-tert-butyl 4-(3-chlorophenyl)-1,4-dihydro-2,6-dimethylpyridine-3,5-dicarboxylate]
5 | 195 to 196 °C | CC1=C(C(=O)OC(C)(C)C)C(c2cccc(Br)c2)C(C(=O)OC(C)(C)C)=C(C)N1 [Example 25, Di-tert-butyl 4-(3-bromophenyl)-1,4-dihydro-2,6-dimethylpyridine-3,5-dicarboxylate]
6 | 187 to 188 °C | CC1=C(C(=O)OC(C)(C)C)C(c2ccc(Br)cc2F)C(C(=O)OC(C)(C)C)=C(C)N1 [Example 44, Di-tert-butyl 4-(4-bromo-2-fluorophenyl)-1,4-dihydro-2,6-dimethylpyridine-3,5-dicarboxylate]
7 | 206 to 207 °C | CC1=C(C(=O)OC(C)(C)C)C(c2ccc(Br)cc2)C(C(=O)OC(C)(C)C)=C(C)N1 [Example 27, Di-tert-butyl 4-(4-bromophenyl)-1,4-dihydro-2,6-dimethylpyridine-3,5-dicarboxylate]
8 | 173 to 174 °C | CC1=C(C(=O)OC(C)(C)C)C(c2cc(Br)ccc2F)C(C(=O)OC(C)(C)C)=C(C)N1 [Example 48, Di-tert-butyl 4-(5-bromo-2-fluorophenyl)-1,4-dihydro-2,6-dimethylpyridine-3,5-dicarboxylate]
9 | 178 to 179 °C | CC1=C(C(=O)OC(C)(C)C)C(c2cccc(F)c2)C(C(=O)OC(C)(C)C)=C(C)N1 [Example 50, Di-tert-butyl 4-(3-fluorophenyl)-1,4-dihydro-2,6-dimethylpyridine-3,5-dicarboxylate]
10 | 149 to 150 °C | CC1=C(C(=O)OC(C)(C)C)C(c2ccc(F)cc2)C(C(=O)OC(C)(C)C)=C(C)N1 [Example 52, Di-tert-butyl 4-(4-fluorophenyl)-1,4-dihydro-2,6-dimethylpyridine-3,5-dicarboxylate]
11 | 171 to 172 °C | CC1=C(C(=O)OC(C)(C)C)C(c2ccc(F)c(Br)c2)C(C(=O)OC(C)(C)C)=C(C)N1 [Example 42, Di-tert-butyl 4-(3-bromo-4-fluorophenyl)-1,4-dihydro-2,6-dimethylpyridine-3,5-dicarboxylate]
12 | 192 to 194 °C | CC1=C(C(=O)OC(C)(C)C)C(c2cccc(F)c2F)C(C(=O)OC(C)(C)C)=C(C)N1 [Example 39, Di-tert-butyl 4-(2,3-difluorophenyl)-1,4-dihydro-2,6-dimethylpyridine-3,5-dicarboxylate]

The next lines start with the compound.

Row | SMILES | melting point
13 | COCC1=C(C(=O)OC)C(c2ccc(Br)cc2)C(C(=O)OC)=C(COC)N1 [Example 53, Dimethyl 4-(4-bromophenyl)-1,4-dihydro-2,6-bis(methoxymethyl)pyridine-3,5-dicarboxylate] | 162 to 163 °C
14 | CCOC(=O)C1=C(C)NC(C)=C(C(=O)OCC)C1c1ccccc1[N+](=O)[O-] [Example 14, Diethyl 1,4-dihydro-2,6-dimethyl-4-(2-nitrophenyl)pyridine-3,5-dicarboxylate] | 120 to 121 °C
15 | CC1=C(C(=O)OC(C)(C)C)C(c2ccccc2[N+](=O)[O-])C(C(=O)OC(C)(C)C)=C(C)N1 [Example 15, Di-tert-butyl 1,4-dihydro-2,6-dimethyl-4-(2-nitrophenyl)pyridine-3,5-dicarboxylate] | 159 to 161 °C
16 | CCOC(=O)C1=C(C)NC(C)=C(C(=O)OCC)C1c1ccc(Br)cc1F [Example 43, Diethyl 4-(4-bromo-2-fluorophenyl)-1,4-dihydro-2,6-dimethylpyridine-3,5-dicarboxylate] | 154 to 155 °C
17 | CC1=C(C(=O)OC(C)(C)C)C(c2ccc(C)cc2C)C(C(=O)OC(C)(C)C)=C(C)N1 [Example 55, Di-tert-butyl 1,4-dihydro-2,6-dimethyl-4-(2,4-dimethylphenyl)pyridine-3,5-dicarboxylate] | 197 to 198 °C
18 | CCOC(=O)C1=C(C)NC(C)=C(C(=O)OCC)C1c1cccc(Br)c1 [Example 24, Diethyl 4-(3-bromophenyl)-1,4-dihydro-2,6-dimethylpyridine-3,5-dicarboxylate] | 125 to 126 °C
19 | CCOC(=O)C1=C(C)NC(C)=C(C(=O)OCC)C1c1ccc(F)cc1 [Example 51, Diethyl 4-(4-fluorophenyl)-1,4-dihydro-2,6-dimethylpyridine-3,5-dicarboxylate] | 150 to 151 °C
20 | CC(=O)C1=C(C)NC(C)=C(C(C)=O)C1c1ccccc1Cl [Example 7, 4-(2-Chlorophenyl)-1,4-dihydro-2,6-dimethylpyridine-3,5-di(2-ethanone)] | 196 to 197 °C
21 | CCOC(=O)C1=C(C)NC(C)=C(C(=O)OCC)C1c1cccc(F)c1F [Example 38, Diethyl 4-(2,3-difluorophenyl)-1,4-dihydro-2,6-dimethylpyridine-3,5-dicarboxylate] | 161 to 162 °C
22 | COC(=O)C1=C(C)NC(C)=C(C(C)=O)C1c1ccccc1Cl (stereo not drawn) [Example 57, Methyl 5-acetyl-4-(2-chlorophenyl)-1,4-dihydro-2,6-dimethylpyridine-3-carboxylate] | 183 to 184 °C
23 | CCOC(=O)C1=C(C)NC(C)=C(C(=O)OCC)C1c1ccccc1Br [Example 11, Diethyl 4-(2-bromophenyl)-1,4-dihydro-2,6-dimethylpyridine-3,5-dicarboxylate] | 144 to 145 °C
24 | CCOC(=O)C1=C(C)NC(C)=C(C(=O)OCC)C1c1c(Cl)cccc1Cl [Example 36, Diethyl 4-(2,6-dichlorophenyl)-1,4-dihydro-2,6-dimethylpyridine-3,5-dicarboxylate] | 134 to 135 °C
25 | CCOC(=O)C1=C(C)NC(C)=C(C(=O)OCC)C1c1cc(Cl)ccc1Cl [Example 34, Diethyl 4-(2,5-dichlorophenyl)-1,4-dihydro-2,6-dimethylpyridine-3,5-dicarboxylate] | 166.5 to 167.5 °C
26 | CCOC(=O)C1=C(C)NC(C)=C(C(=O)OCC)C1c1ccc(Cl)cc1 [Example 22, Diethyl 4-(4-chlorophenyl)-1,4-dihydro-2,6-dimethylpyridine-3,5-dicarboxylate] | 151 to 152 °C
27 | CCOC(=O)C1=C(C)NC(C)=C(C(=O)OC)C1c1ccccc1Cl (stereo not drawn) [Example 56, 3-Ethyl 5-methyl 4-(2-chlorophenyl)-1,4-dihydro-2,6-dimethylpyridine-3,5-dicarboxylate] | 125 to 127 °C
28 | COCC1=C(C(=O)OC)C(c2ccccc2Cl)C(C(=O)OC)=C(COC)N1 [Example 17, Dimethyl 4-(2-chlorophenyl)-1,4-dihydro-2,6-bis(methoxymethyl)pyridine-3,5-dicarboxylate] | 137 to 138 °C
29 | COCCOC(=O)C1=C(C)NC(C)=C(C(=O)OCCOC)C1c1ccc(Br)cc1 [Example 46, Bis(2-methoxyethyl) 4-(4-bromophenyl)-1,4-dihydro-2,6-dimethylpyridine-3,5-dicarboxylate] | 116 to 117 °C
30 | COCCOC(=O)C1=C(C)NC(C)=C(C(=O)OCCOC)C1c1cccc(Br)c1 [Example 45, Bis(2-methoxyethyl) 4-(3-bromophenyl)-1,4-dihydro-2,6-dimethylpyridine-3,5-dicarboxylate] | 124.5 to 125.5 °C
31 | CCOC(=O)C1=C(C)NC(C)=C(C(=O)OCC)C1c1cc(Cl)cc(Cl)c1 [Example 37, Diethyl 4-(3,5-dichlorophenyl)-1,4-dihydro-2,6-dimethylpyridine-3,5-dicarboxylate] | 102 to 104 °C
32 | CC1=C(C(=O)OC(C)(C)C)C(c2cccc(Cl)c2Cl)C(C(=O)OC(C)(C)C)=C(C)N1 [Example 32, Di-tert-butyl 4-(2,3-dichlorophenyl)-I14-dihydro-2,6-dimethylpyridine-3,5-dicarboxylate] | 144 to 145 °C
33 | CCOC(=O)C1=C(C)N(Cc2ccccc2)C(C)=C(C(=O)OCC)C1c1ccc(Br)cc1 [Example 54, Diethyl 1-benzyl-4-(4-bromophenyl)-1,4-dihydro-2,6-dimethylpyridine-3,5-dicarboxylate] | 168 to 169 °C
34 | CCOC(=O)C1=C(C)NC(C)=C(C(=O)OC)C1c1ccccc1Br (stereo not drawn) [Example 58, 3-Ethyl 5-methyl 4-(2-bromophenyl)-I14-dihydro-2,6-dimethylpyridine-3,5-dicarboxylate] | 134.5 to 135.5 °C
35 | COC(=O)C1=C(C)NC(C)=C(C(C)=O)C1c1ccccc1Br (stereo not drawn) [Example 59, Methyl 5-acetyl-4-(2-bromophenyl)-1,4-dihydro-2,6-dimethylpyridine-3-carboxylate] | 146 to 148 °C
36 | C=CCOC(=O)C1=C(C)NC(C)=C(C(=O)OCC=C)C1c1ccc(Br)cc1 [Example 40, Diallyl 4-(4-bromophenyl)-1,4-dihydro-2,6-dimethylpyridine-3,5-dicarboxylate] | 130 to 131 °C
37 | COC(=O)C1=C(C)NC(C)=C(C(=O)OC)C1c1ccccc1Br [Example 19, Dimethyl 4-(2-bromophenyl)-1,4-dihydro-2,6-dimethylpyridine-3,5-dicarboxylate] | 164 to 165 °C
38 | CCOC(=O)C1=C(C)NC(C)=C(C(=O)OCC)C1c1ccccc1I [Example 18, Diethyl 1,4-dihydro-4-(2-iodophenyl)-2,6-dimethylpyridine-3,5-dicarboxylate] | 173 to 174.5 °C
39 | CC1=C(C(=O)OC(C)(C)C)C(c2cc(Cl)ccc2Cl)C(C(=O)OC(C)(C)C)=C(C)N1 [Example 35, Di-tert-butyl 4-(2,5-dichlorophenyl)-1,4-dihydro-2,6-dimethylpyridine-3,5-dicarboxylate] | 181 to 183 °C

— patent publication US20080058330A1, “Compounds and Combinations Thereof for Inhibiting Beta-Amyloid Production and Methods of Use Thereof” (Roskamp Research LLC, priority 2006, published 2008)
